Test results reported in patent US20170354629A1, “Method And Compositions For Treating Skin” (ELC Management LLC, priority 2011, published 2017).

Columns and labels:
[1] = system: per1 gene expression in skin cells; test: observation of per1 gene expression in skin cells (no method given); format: cell-based; details: component commonly found in extracts of Echinacea
per1 gene expression = per1 gene expression luciferase reporter assay in keratinocytes; format: cell-based; details: normal human epidermal keratinocytes (NHEK) transfected with pGL4.11 per1/luciferase plasmid; 16 hours incubation with test material; values only in FIGS. 1 and 2
Procedure: Cichoric acid and […] purpurea extract ([…]) were tested to determine per1 gene expression. Normal human epidermal keratinocytes (NHEK) were diluted in […] with supplement S001-5 added (Gibco, Cascade Biologics, Invitrogen) to form a concentration of 3×10^4 and plated onto a black walled 96 well microtiter plate by adding 100 μl in each well. The plate was incubated for 3 hours at 37° C. in 5% CO2. The media was removed and remaining adhered cells rinsed with […], supplement free. A plasmid solution was prepared by diluting Tris-EDTA pH 8.0 buffer with plasmid pGL4.11 (DNA 2.0, Carlsbad, Calif.) to form a 1 mg/ml solution. This plasmid contained a per1 gene sequence and a luciferase reporter gene sequence. A transfection mixture was prepared by diluting […], supplement free, to form a solution with 0.31 μg/ml of plasmid (obtained by adding appropriate amount of plasmid solution prepared above), 1.28% PlusTM Reagent (Catalog No. 11514-015, Invitrogen, Carlsbad, Calif.), and 3.22% LipofectamineTM Transfection Reagent (Catalog No. 18324-012, Invitrogen, Carlsbad, Calif.). […] Immediately prior to reading, Bright-GloTM (Pro-Mega, Madison Wis.) was added to each well plate in the same volume as is currently in the well (e.g. a 1:1 dilution). Luminescence was measured in an LMaxTM Microplate Luminometer (Molecular Devices, Sunnyvale, Calif.).

## O=C(/C=C/c1ccc(O)c(O)c1)O[C@@H](C(=O)O)[C@@H](O)C(=O)O [caftaric acid]
[1]
  per1 gene expression in skin cells: does not increase per1 gene expression

## O=C(/C=C/c1ccc(O)c(O)c1)O[C@@H](C(=O)O)[C@@H](OC(=O)/C=C/c1ccc(O)c(O)c1)C(=O)O [cichoric acid]
per1 gene expression
  per1 gene expression (luminescence of per1-luciferase reporter): stimulate per1 gene expression
